According to ChEMBL document CHEMBL1914304 (J Med Chem, 2011):

Experiments:
HEK293 = assay: Cytotoxicity against human HEK293 cells after 72 hrs by luminescence assay; format: cell-based; conditions: hek293, 72 h
Raji = assay: Cytotoxicity against human Raji cells after 72 hrs by luminescence assay; format: cell-based
HepG2 = assay: Cytotoxicity against human HepG2 cells after 72 hrs by luminescence assay; format: cell-based; conditions: hepg2, 72 h
BJ = assay: Cytotoxicity against human BJ cells after 72 hrs by luminescence assay; format: cell-based
[1] = Selectivity ratio of EC50 for human HepG2 cells to EC50 for Plasmodium falciparum

| Compound | Activity (HEK293) | Activity (Raji) | Activity (HepG2) | Activity (BJ) | selectivity ratio [1] |
| --- | --- | --- | --- | --- | --- |
| Cl.O=C(/C=C/c1ccccc1)c1ccccc1O | Non-toxic | Non-toxic | Non-toxic | Non-toxic | > 10 |
| Cl.O=C(/C=C/c1ccccc1)c1cc(F)ccc1O | Non-toxic | Non-toxic | Non-toxic | Non-toxic | > 10 |
| Cl.O=C(/C=C/c1ccc(F)cc1)c1ccccc1O | Non-toxic | Non-toxic | Non-toxic | Non-toxic | > 10 |
| Cl.O=C(/C=C/c1ccc(F)cc1)c1cc(F)ccc1O | Non-toxic | Non-toxic | Non-toxic | Non-toxic | > 10 |
| Cl.O=C(CCc1ccccc1)c1ccccc1O | Non-toxic | Non-toxic | Non-toxic | Non-toxic | > 10 |
| Cl.O=C(CCc1ccccc1)c1cc(F)ccc1O | Non-toxic | Non-toxic | Non-toxic | Non-toxic | > 10 |
| Cl.O=C(CCc1ccc(F)cc1)c1ccccc1O | Non-toxic | Non-toxic | Non-toxic | Non-toxic | > 10 |
| Cl.O=C(CCc1ccc(F)cc1)c1cc(F)ccc1O | Non-toxic | Non-toxic | Non-toxic | Non-toxic | > 10 |
| Cl.O=C(CCc1ccc(F)cc1)c1cc(F)ccc1OCC(O)CN1CCN(c2ccc(F)cc2)CC1 (racemic) | Non-toxic | Non-toxic | Non-toxic | Non-toxic | > 10 |
| Cl.O=C(CCc1ccc(F)cc1)c1cc(F)ccc1OCC(O)CN1CCN(c2ccc([N+](=O)[O-])cc2)CC1 (racemic) | Non-toxic | Non-toxic | Non-toxic | Non-toxic | > 10 |
| Cl.Nc1ccc(N2CCN(CC(O)COc3ccc(F)cc3C(=O)CCc3ccc(F)cc3)CC2)cc1 (racemic) | Non-toxic | Non-toxic | Non-toxic | Non-toxic | > 10 |
| Cl.O=C(CCc1ccc(F)cc1)c1cc(F)ccc1OCC(O)CN1CCN(c2ccc(O)cc2)CC1 (racemic) | Non-toxic | Non-toxic | Non-toxic | Non-toxic | > 10 |
| Cl.O=C(CCc1ccc(F)cc1)c1cc(F)ccc1OCC(O)CN1CCN(c2ccc(C(F)(F)F)cc2)CC1 (racemic) | Non-toxic | Non-toxic | Non-toxic | Non-toxic | > 10 |
| Cl.O=C(CCc1ccc(F)cc1)c1cc(F)ccc1OCC(O)CN1CCN(C(=O)c2ccccc2)CC1 (racemic) | Non-toxic | Non-toxic | Non-toxic | Non-toxic | > 10 |
| Cl.O=C(CCc1ccc(F)cc1)c1cc(F)ccc1OCC(O)CN1CCN(C(c2ccccc2)c2ccccc2)CC1 (racemic) | Non-toxic | Non-toxic | Non-toxic | Non-toxic | > 10 |
| CN1CCN(CC(O)COc2ccc(F)cc2C(=O)CCc2ccc(F)cc2)CC1.Cl (racemic) | Non-toxic | Non-toxic | Non-toxic | Non-toxic | > 10 |
| CCN1CCN(CC(O)COc2ccc(F)cc2C(=O)CCc2ccc(F)cc2)CC1.Cl (racemic) | Non-toxic | Non-toxic | Non-toxic | Non-toxic | > 10 |
| Cl.O=C(CCc1ccc(F)cc1)c1cc(F)ccc1OCC(O)CN1CCOCC1 (racemic) | Non-toxic | Non-toxic | Non-toxic | Non-toxic | > 10 |
| Cl.O=C(CCc1ccccc1)c1ccccc1OCC(O)Cn1ccc2ccccc21 (racemic) | Non-toxic | Non-toxic | Non-toxic | Non-toxic | > 10 |
| CC(C)c1nccn1CC(O)COc1ccccc1C(=O)CCc1ccccc1.Cl (racemic) | Non-toxic | Non-toxic | Non-toxic | Non-toxic | > 10 |
| Cl.O=C(CCc1ccccc1)c1ccccc1OCC(O)CC1CCCC1 (racemic) | Non-toxic | Non-toxic | Non-toxic | Non-toxic | > 10 |
| Cl.O=C(CCc1ccc(F)cc1)c1ccccc1OCC(O)Cn1ccc2ccccc21 (racemic) | Non-toxic | Non-toxic | Non-toxic | Non-toxic | > 10 |
| CC(C)c1nccn1CC(O)COc1ccccc1C(=O)CCc1ccc(F)cc1.Cl (racemic) | Non-toxic | Non-toxic | Non-toxic | Non-toxic | > 10 |
| Cl.O=C(CCc1ccc(F)cc1)c1ccccc1OCC(O)CC1CCCC1 (racemic) | Non-toxic | Non-toxic | Non-toxic | Non-toxic | > 10 |
| Cl.O=C(CCc1ccccc1)c1cc(F)ccc1OCC(O)Cn1ccc2ccccc21 (racemic) | Non-toxic | Non-toxic | Non-toxic | Non-toxic | > 10 |
| CC(C)c1nccn1CC(O)COc1ccc(F)cc1C(=O)CCc1ccccc1.Cl (racemic) | Non-toxic | Non-toxic | Non-toxic | Non-toxic | > 10 |
| Cl.O=C(CCc1ccccc1)c1cc(F)ccc1OCC(O)CC1CCCC1 (racemic) | Non-toxic | Non-toxic | Non-toxic | Non-toxic | > 10 |
| Cl.O=C(CCc1ccc(F)cc1)c1cc(F)ccc1OCC(O)Cn1ccc2ccccc21 (racemic) | Non-toxic | Non-toxic | Non-toxic | Non-toxic | > 10 |
| CC(C)c1nccn1CC(O)COc1ccc(F)cc1C(=O)CCc1ccc(F)cc1.Cl (racemic) | Non-toxic | Non-toxic | Non-toxic | Non-toxic | > 10 |
| Cl.O=C(CCc1ccc(F)cc1)c1cc(F)ccc1OCC(O)CC1CCCC1 (racemic) | Non-toxic | Non-toxic | Non-toxic | Non-toxic | > 10 |
